Laboratory results: patent US6121512A, “Cytochrome P-450 constructs and method of producing herbicide-resistant transgenic plants” (North Carolina State University, priority 1997, dated 2000)

Columns and labels:
[1] = tested on: wild-type SR1 plants and pBI121-transformed control tobacco plants; assay: Herbicide tolerance, seeds germinated on herbicide medium, control tobacco; assay type: in vivo, Nicotiana tabacum cv SR1; conditions: 1.0 μM chlortoluron in medium
Protocol: (§1) T1 generation seeds from CYP71A10-transformed tobacco and pBI121-transformed control plants were placed onto Petri dishes containing MS salts and linuron (using its commercial formulation LOROX 50 DF) at active ingredient concentrations ranging from 0.25 to 3.0 μM. Chlortoluron was added at 0, 1.0, 5.0 and 10.0 μM concentrations using a 99.5% pure analytical standard. The Petri dishes were incubated in a growth chamber maintaining a constant temperature of 27° C. and a 16/8 hour light/dark cycle. The phytotoxic effects of the treatments were determined visually by comparison to control plants and plants grown in the absence of the herbicide. All treatments were repeated at least twice.

[2] = tested on: excised leaves of transgenic tobacco plant 25/2 progeny (CYP71A10-transformed); assay: In vivo herbicide metabolism assay, excised leaves of CYP71A10-transformed tobacco; parameters: species or system Nicotiana tabacum cv SR1; conditions: after 14 hours; 1.2 nmol herbicide; standard error in parentheses; four 25/2 plants
Protocol: Seeds from primary transgenic tobacco plants transformed with CYP71A10 and control plants transformed with the pBI121 vector were grown in Petri dishes containing MS salts and 100 μg/ml kanamycin. At five weeks post-seeding, kanamycin-resistant plantlets were transplanted into pots containing soil and grown an additional two weeks. Single leaves of approximately 10 cm^2 in size were excised and their petioles inserted into 100 μl of H2 O containing radiolabeled herbicide. The leaves were placed in a growth chamber maintaining a temperature of 27° C. and incubated until the entire volume of the herbicide solution was drawn up by the transpirational stream of the leaves (about 3 hrs). The leaves were subsequently transferred into an Eppendorf tube containing distilled water and further incubated for a total of 14 hours.
[^14 C]-labeled herbicide was extracted from the leaves by grinding for 5 minutes in 250 μl methanol with a plastic pellet pestle driven by an electric drill. After centrifugation for 3 minutes at 14,000 g, 75μl of the supernatant was spotted on a Whatman K6F silica plate and developed in a solvent system containing chloroforn/ethanol/acetic acid 135:10:15 (v/v/v). The separated herbicide derivatives were visualized using an imaging scanner. Substrate conversion was quantified based on the amount of herbicide absorbed, and the ratios of the parent compound and the produced metabolites determined from the TLC profiles.

[3] = target: T1, CYP73A1 (trans-cinnamic acid hydroxylase) (Helianthus tuberosus, UniProt Q04468); conditions: CYP73A1 expressed in yeast, chlortoluron ring-methyl hydroxylation; cited from earlier work
T1 construct: host or cells: yeast
T1 sequence (Q04468 1-505): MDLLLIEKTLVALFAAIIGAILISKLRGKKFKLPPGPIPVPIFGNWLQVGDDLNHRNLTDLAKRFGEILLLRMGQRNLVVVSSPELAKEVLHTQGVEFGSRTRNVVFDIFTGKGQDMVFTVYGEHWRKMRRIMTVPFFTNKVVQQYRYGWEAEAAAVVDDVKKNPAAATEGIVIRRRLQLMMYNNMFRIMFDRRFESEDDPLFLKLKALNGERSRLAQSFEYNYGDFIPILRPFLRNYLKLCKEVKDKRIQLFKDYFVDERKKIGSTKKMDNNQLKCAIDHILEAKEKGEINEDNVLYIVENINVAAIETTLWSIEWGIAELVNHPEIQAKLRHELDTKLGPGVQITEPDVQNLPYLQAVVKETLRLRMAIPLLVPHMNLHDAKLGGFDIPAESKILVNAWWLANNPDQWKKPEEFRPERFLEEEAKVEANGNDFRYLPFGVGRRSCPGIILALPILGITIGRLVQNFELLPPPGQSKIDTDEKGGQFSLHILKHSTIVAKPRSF

[4] = tested on: CYP71A10-transformed tobacco; assay: Herbicide tolerance, seeds germinated on herbicide medium, CYP71A10-transformed tobacco; assay type: in vivo, Nicotiana tabacum cv SR1; conditions: 1.0 μM chlortoluron in medium
Protocol: as §1

Cc1ccc(NC(=O)N(C)C)cc1Cl [Chlortoluron, chlortoluron]
growth of the control plants [1]: completely arrested
% of herbicide metabolized, CYP71A10-transformed [2]: 85 (8.1) %
turnover number of the heterologously expressed enzyme [3]: 0.014 /min
growth of the 25/2 plants [4]: modestly inhibited
